Twelve compounds from ChEMBL document CHEMBL1151865, “New developments for the design, synthesis and biological evaluation of potent SARS-CoV 3CL(pro) inhibitors” (Bioorg Med Chem Lett, 2009) can be followed below.

The target of this assay is Replicase polyprotein 1ab (Severe acute respiratory syndrome-related coronavirus, UniProt P0C6X7). Briefly: Inhibition of SARS coronavirus 3CL protease pretreated for 10 mins before substrate addition.
With `CCCN(CCC)C(=O)CC[C@H](NC(=O)[C@H](CC(C)C)NC(=O)[C@@H](NC(=O)[C@H](C)NC(=O)OCc1ccccc1)C(C)C)C(=O)C(F)(F)F`, the Ki (usually the equilibrium dissociation constant of an inhibitor or competing ligand from its target) amounted to 297 µM.

Consider `CCN(CC)C(=O)CC[C@H](NC(=O)[C@H](CC(C)C)NC(=O)[C@@H](NC(=O)OCc1ccccc1)C(C)C)C(=O)c1nc2ccccc2s1`, for which the Ki was determined as 49.3 µM.

Regarding `CCCN(CCC)C(=O)CC[C@H](NC(=O)[C@H](CC(C)C)NC(=O)[C@@H](NC(=O)OCc1ccccc1)C(C)C)C(=O)C(F)(F)F`, the Ki was determined as 363 µM.

Take `CC(C)C[C@H](NC(=O)[C@@H](NC(=O)OCc1ccccc1)C(C)C)C(=O)N[C@@H](CCC(=O)c1nccs1)C(=O)c1nccs1`: the Ki came to 45.2 µM.

As to `CCCN(CCC)C(=O)CC[C@H](NC(=O)[C@H](CC(C)C)NC(=O)OCc1ccccc1)C(=O)C(F)(F)F`, the Ki was determined as 584 µM.

Turning to `CCN(CC)C(=O)CC[C@H](NC(=O)[C@H](CC(C)C)NC(=O)OCc1ccccc1)C(=O)c1nccs1`, the Ki came to 462 µM.

Regarding `CC(C)C[C@H](NC(=O)[C@@H](NC(=O)OCc1ccccc1)C(C)C)C(=O)N[C@@H](CCC(=O)N1CCOCC1)C(=O)C(F)(F)F`, the Ki turned out to be 21 µM.

On to `CC(C)C[C@H](NC(=O)[C@@H](NC(=O)OCc1ccccc1)C(C)C)C(=O)N[C@@H](CCC(=O)N1CCOCC1)C(=O)c1nccs1`, for which the Ki amounted to 478 µM.

`CC(C)C[C@H](NC(=O)[C@@H](NC(=O)OCc1ccccc1)C(C)C)C(=O)N[C@@H](CCC(=O)N(C)Cc1ccccc1)C(=O)C(F)(F)F`: the Ki worked out at 34.1 µM.

As for `CCN(CC)C(=O)CC[C@H](NC(=O)[C@H](CC(C)C)NC(=O)[C@@H](NC(=O)OCc1ccccc1)C(C)C)C(=O)c1nccs1`, the Ki was 112 µM.

In the case of `CCN(CC)C(=O)CC[C@H](NC(=O)[C@@H](NC(=O)OCc1ccccc1)C(C)C)C(=O)c1nccs1`, the Ki stood at 614 µM.

Turning to `CCN(CC)C(=O)CC[C@H](NC(=O)[C@@H](NC(=O)OCc1ccccc1)C(C)C)C(=O)c1nc2ccccc2s1`, the Ki worked out at 159 µM.
